# Assay results from BindingDB's records for doi:10.1016/j.bmcl.2003.09.058 (Pharmacor, 2003).
# Molecular target: T1, Dimer of Gag-Pol polyprotein [501-599] (Human immunodeficiency virus 1, UniProt P03367)
# T1 construct: 501-599
# Assay: Protease Inhibition Assay
# Conditions: pH 4.7; 30 °C
# Experimental: HIV-1 protease activity was measured by a continuous fluorometric assay using the internally quenched fluorogenic substrate DABCYL-Ser-Gln-Asn-Tyr-Pro-Ile-Val-Gln-EDANS. The proteolytic activity can be monitored by the increase in fluorescence intensity, and the protease products were analyzed by HPLC.
row,SMILES,Ki [nM]
1,Cc1ccc(S(=O)(=O)N(CC(C)C)[C@@H](CCCCNC(=O)c2ccccc2)C(=O)O)cc1 [(2S)-2-[(4-methylbenzene)(2-methylpropyl)sulfonamido]-6-(phenylformamido)hexanoic acid],> 300
2,"Cc1ccc(S(=O)(=O)N(CC(C)C)[C@@H](CCCCNC(=O)C(Cc2ccccc2)C(C)(C)C)C(=O)O)cc1 (stereo partly drawn) [(2S)-6-(2-benzyl-3,3-dimethylbutanamido)-2-[(4-methylbenzene)(2-methylpropyl)sulfonamido]hexanoic acid]",> 300
3,Cc1ccc(S(=O)(=O)N(CC(C)C)[C@@H](CCCCNC(=O)OCc2ccccc2)C(=O)O)cc1 [(2S)-6-{[(benzyloxy)carbonyl]amino}-2-[(4-methylbenzene)(2-methylpropyl)sulfonamido]hexanoic acid],> 300
4,Cc1ccc(S(=O)(=O)N(CC(C)C)[C@@H](CCCCNC(=O)CCCc2ccccc2)C(=O)O)cc1 [(2S)-2-[(4-methylbenzene)(2-methylpropyl)sulfonamido]-6-(4-phenylbutanamido)hexanoic acid],> 300
5,Cc1ccc(S(=O)(=O)N(CC(C)C)[C@@H](CCCCNC(=O)/C=C/c2ccccc2)C(=O)O)cc1 [(2S)-2-[(4-methylbenzene)(2-methylpropyl)sulfonamido]-6-[(2E)-3-phenylprop-2-enamido]hexanoic acid],> 300
6,Cc1ccc(S(=O)(=O)N(CC(C)C)[C@@H](CCCCNC(=O)Cc2ccccc2)C(=O)O)cc1 [(2S)-2-[(4-methylbenzene)(2-methylpropyl)sulfonamido]-6-(1-phenylacetamido)hexanoic acid],> 300
7,Cc1ccc(S(=O)(=O)N(CC(C)C)[C@@H](CCCCNC(=O)C2CC2c2ccccc2)C(=O)O)cc1 (stereo partly drawn) [(2S)-2-[(4-methylbenzene)(2-methylpropyl)sulfonamido]-6-[(2-phenylcyclopropyl)formamido]hexanoic acid],> 300
